From PubChem BioAssay AID1963980 (Molecular Pharmacology Branch, DTP, NCI, 2024)

Test system: 475296-252-R-J1-PDC spheroid viability
Assay: Anticancer human tumor 475296-252-R-J1-PDC patient-derived rectal carcinoma cell line growth inhibition [PI3K]
Settings: spheroids with HUVEC and MSC; for viability, T/C: stronger effect = lower value
Outline: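 Agents were dosed from a top concentration near clinical Cmax (otherwise 10 microM) in half-log decrements, alone or combined with PI3K inhibitors. The spheroids contain tumor cells plus endothelial (HUVEC) and MSC stroma; viability is measured.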

[1] = curve of first compound, second compound 0.0316 µM
[2] = curve of first compound, second compound 0.1 µM
[3] = curve of first compound, second compound 0.316 µM
[4] = curve of first compound, second compound 1 µM
[5] = curve of first compound, second compound 3.16 µM
[6] = curve of first compound, second compound 10 µM
[7] = second compound 0.0316 µM, first compound 0.0316 µM
[8] = second compound 0.0316 µM, first compound 0.1 µM
[9] = second compound 0.0316 µM, first compound 0.316 µM
[10] = second compound 0.0316 µM, first compound 1 µM
[11] = second compound 0.0316 µM, first compound 3.16 µM
[12] = second compound 0.0316 µM, first compound 10 µM
[13] = second compound 0.1 µM, first compound 0.0316 µM
[14] = second compound 0.1 µM, first compound 0.1 µM
[15] = second compound 0.1 µM, first compound 0.316 µM
[16] = second compound 0.1 µM, first compound 1 µM
[17] = second compound 0.1 µM, first compound 3.16 µM
[18] = second compound 0.1 µM, first compound 10 µM
[19] = second compound 0.316 µM, first compound 0.0316 µM
[20] = second compound 0.316 µM, first compound 0.1 µM
[21] = second compound 0.316 µM, first compound 0.316 µM
[22] = second compound 0.316 µM, first compound 1 µM
[23] = second compound 0.316 µM, first compound 3.16 µM
[24] = second compound 0.316 µM, first compound 10 µM
[25] = second compound 1 µM, first compound 0.0316 µM
[26] = second compound 1 µM, first compound 0.1 µM
[27] = second compound 1 µM, first compound 0.316 µM
[28] = second compound 1 µM, first compound 1 µM
[29] = second compound 1 µM, first compound 3.16 µM
[30] = second compound 1 µM, first compound 10 µM
[31] = second compound 3.16 µM, first compound 0.0316 µM
[32] = second compound 3.16 µM, first compound 0.1 µM
[33] = second compound 3.16 µM, first compound 0.316 µM
[34] = second compound 3.16 µM, first compound 1 µM
[35] = second compound 3.16 µM, first compound 3.16 µM
[36] = second compound 3.16 µM, first compound 10 µM
[37] = second compound 10 µM, first compound 0.0316 µM
[38] = second compound 10 µM, first compound 0.1 µM
[39] = second compound 10 µM, first compound 0.316 µM
[40] = second compound 10 µM, first compound 1 µM
[41] = second compound 10 µM, first compound 3.16 µM
[42] = second compound 10 µM, first compound 10 µM
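Further: spheroids exposed to agents for seven days before readout.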

CNC(=O)c1ccc(N2C(=S)N(c3ccc(C#N)c(C(F)(F)F)c3)C(=O)C2(C)C)cc1F + CC(Nc1ncnc2nc[nH]c12)c1cc2cccc(Cl)c2c(=O)n1-c1ccccc1
IC50 [1]: > 10 µM | IC50 [2]: > 10 µM | IC50 [3]: > 10 µM | IC50 [4]: > 10 µM | IC50 [5]: > 10 µM | IC50 [6]: > 10 µM | viability, T/C [7]: 90.9% | viability, T/C [8]: 92.1% | viability, T/C [9]: 107% | viability, T/C [10]: 92.6% | viability, T/C [11]: 101% | viability, T/C [12]: 85.7% | viability, T/C [13]: 97.6% | viability, T/C [14]: 99.6% | viability, T/C [15]: 93.4% | viability, T/C [16]: 109% | viability, T/C [17]: 109% | viability, T/C [18]: 106% | viability, T/C [19]: 94.9% | viability, T/C [20]: 104% | viability, T/C [21]: 106% | viability, T/C [22]: 98.4% | viability, T/C [23]: 107% | viability, T/C [24]: 96.2% | viability, T/C [25]: 97% | viability, T/C [26]: 92.1% | viability, T/C [27]: 102% | viability, T/C [28]: 92.4% | viability, T/C [29]: 99.2% | viability, T/C [30]: 99.7% | viability, T/C [31]: 89.4% | viability, T/C [32]: 114% | viability, T/C [33]: 94% | viability, T/C [34]: 103% | viability, T/C [35]: 101% | viability, T/C [36]: 93.2% | viability, T/C [37]: 103% | viability, T/C [38]: 92% | viability, T/C [39]: 93% | viability, T/C [40]: 96.6% | viability, T/C [41]: 107% | viability, T/C [42]: 109%

CC1(C)CCC(Nc2ncc(C(F)(F)F)c(-c3c[nH]c4c(P(C)(C)=O)c(C#N)ccc34)n2)CN1 (stereo unspecified) + Cc1nc(NC(=O)N2CCCC2C(N)=O)sc1-c1ccnc(C(C)(C)C(F)(F)F)c1
IC50 [1]: > 10 µM | IC50 [2]: > 10 µM | IC50 [3]: > 10 µM | IC50 [4]: > 10 µM | IC50 [5]: > 10 µM | IC50 [6]: > 10 µM | viability, T/C [7]: 89.6% | viability, T/C [8]: 90.4% | viability, T/C [9]: 119% | viability, T/C [10]: 139% | viability, T/C [11]: 178% | viability, T/C [12]: 82.4% | viability, T/C [13]: 97.2% | viability, T/C [14]: 96.4% | viability, T/C [15]: 106% | viability, T/C [16]: 142% | viability, T/C [17]: 176% | viability, T/C [18]: 91.7% | viability, T/C [19]: 95.2% | viability, T/C [20]: 104% | viability, T/C [21]: 97.3% | viability, T/C [22]: 129% | viability, T/C [23]: 193% | viability, T/C [24]: 83.2% | viability, T/C [25]: 100% | viability, T/C [26]: 111% | viability, T/C [27]: 110% | viability, T/C [28]: 143% | viability, T/C [29]: 165% | viability, T/C [30]: 81.5% | viability, T/C [31]: 99.3% | viability, T/C [32]: 106% | viability, T/C [33]: 109% | viability, T/C [34]: 121% | viability, T/C [35]: 139% | viability, T/C [36]: 72.9% | viability, T/C [37]: 104% | viability, T/C [38]: 97.1% | viability, T/C [39]: 94% | viability, T/C [40]: 107% | viability, T/C [41]: 121% | viability, T/C [42]: 62.9%

COc1c(OCCCN2CCOCC2)ccc2c3n(c(=NC(=O)c4cnc(N)nc4)nc12)CCN3
viability, T/C (compound 0.00316 µM): 103% [middle of 8 runs] | viability, T/C (compound 0.01 µM): 97.3% [middle of 8 runs] | viability, T/C (compound 0.0316 µM): 90.7% [middle of 8 runs] | viability, T/C (compound 0.1 µM): 87% [middle of 8 runs] | viability, T/C (compound 0.316 µM): 71.5% [middle of 8 runs] | viability, T/C (compound 1 µM): 68% [middle of 8 runs] | IC50 (compound alone, run of 06/13/2023): > 1 µM
